Earlier results in patent US6638954B2, “Δ2-1,2,3-TRIAZOLINE ANTICONVULSANTS AND THEIR ACTIVE METABOLITE ANALOGUES, THE AMINOALKYLPYRIDINES, ARE EXCITATORY AMINO ACID ANTAGONISTS AND ANTIISCHEMIC AGENTS, USEFUL IN THE TREATMENT OF CEREBRAL ISCHEMIA RESULTING FROM STROKE” (K and K Biosciences, Inc., priority 2000, dated 2003).

What was measured:
entorhinal-kindled rats = conditions: non-sedative, non-neurotoxic doses
amygdala-kindled rats = conditions: non-sedative, non-neurotoxic doses
[1] = tested on: N-methyl D-aspartate (NMDA)-induced seizures; conditions: mouse

1-(p-Chlorophenyl)-5-(4-pyridyl)-Δ^2-1,2,3-triazoline [Table IV (2)]
ED50, protection against after-discharge seizures and generalized convulsions (entorhinal-kindled rats): 423 ± 45 mg/kg
ED50, protection against after-discharge seizures and generalized convulsions (amygdala-kindled rats): 215 ± 61 mg/kg
Protection against NMDA-induced seizures/convulsions [1]: complete protection
